Reference: ChEMBL document CHEMBL1201861, “Genomics of Drug Sensitity in Cancer screening data, Wellcome Trust Sanger Institute”

Assays:
Experiment in all cases: cells
Conditions in all cases: Homo sapiens
NCI-H630 = assay type: functional, cell-based
Description: SANGER: Inhibition of human NCI-H630 cell growth in a cell viability assay.

23132-87 = assay type: functional, cell-based
Description: SANGER: Inhibition of human 23132-87 cell growth in a cell viability assay.

BHT-101 = assay type: functional, cell-based
Description: SANGER: Inhibition of human BHT-101 cell growth in a cell viability assay.

IST-SL2 = assay type: functional, cell-based
Description: SANGER: Inhibition of human IST-SL2 cell growth in a cell viability assay.

SBC-5 = assay type: functional, cell-based
Description: SANGER: Inhibition of human SBC-5 cell growth in a cell viability assay.

HCC38 = assay type: functional, cell-based
Description: SANGER: Inhibition of human HCC38 cell growth in a cell viability assay.

CAPAN-1 = assay type: functional, cell-based
Description: SANGER: Inhibition of human CAPAN-1 cell growth in a cell viability assay.

A2058 = assay type: functional, cell-based
Description: SANGER: Inhibition of human A2058 cell growth in a cell viability assay.

BEN = assay type: functional, cell-based
Description: SANGER: Inhibition of human BEN cell growth in a cell viability assay.

KYSE-180 = assay type: functional, cell-based
Description: SANGER: Inhibition of human KYSE-180 cell growth in a cell viability assay.

NCI-H748 = assay type: functional, cell-based
Description: SANGER: Inhibition of human NCI-H748 cell growth in a cell viability assay.

GP5d = assay type: functional, cell-based
Description: SANGER: Inhibition of human GP5d cell growth in a cell viability assay.

P31-FUJ = assay type: functional, cell-based
Description: SANGER: Inhibition of human P31-FUJ cell growth in a cell viability assay.

MKN-28 = assay type: functional, cell-based
Description: SANGER: Inhibition of human MKN28 cell growth in a cell viability assay.

639-V = assay type: functional, cell-based
Description: SANGER: Inhibition of human 639-V cell growth in a cell viability assay.

MDA-MB-134-VI = assay type: functional, cell-based
Description: SANGER: Inhibition of human MDA-MB-134-VI cell growth in a cell viability assay.

BT-20 = assay type: functional, cell-based
Description: SANGER: Inhibition of human BT-20 cell growth in a cell viability assay.

RD = assay type: functional, cell-based
Description: SANGER: Inhibition of human RD cell growth in a cell viability assay.

EB2 = assay type: functional, cell-based
Description: SANGER: Inhibition of human EB2 cell growth in a cell viability assay.

C32 = assay type: functional, cell-based
Description: SANGER: Inhibition of human C32 cell growth in a cell viability assay.

MCF7 = assay type: functional, cell-based
Description: SANGER: Inhibition of human MCF7 cell growth in a cell viability assay.

D-336MG = assay type: functional, cell-based
Description: SANGER: Inhibition of human D-336MG cell growth in a cell viability assay.

NCI-H2171 = assay type: functional, cell-based
Description: SANGER: Inhibition of human NCI-H2171 cell growth in a cell viability assay.

SW1463 = assay type: functional, cell-based
Description: SANGER: Inhibition of human SW1463 cell growth in a cell viability assay.

NCI-H1993 = assay type: functional, cell-based
Description: SANGER: Inhibition of human NCI-H1993 cell growth in a cell viability assay.

NCI-H2141 = assay type: functional, cell-based
Description: SANGER: Inhibition of human NCI-H2141 cell growth in a cell viability assay.

SK-HEP1 = assay type: functional, cell-based, SK-HEP-1
Description: SANGER: Inhibition of human SK-HEP-1 cell growth in a cell viability assay.

JEG-3 = assay type: functional, cell-based
Description: SANGER: Inhibition of human JEG-3 cell growth in a cell viability assay.

YAPC = assay type: functional, cell-based
Description: SANGER: Inhibition of human YAPC cell growth in a cell viability assay.

SW-620 = assay type: functional, cell-based
Description: SANGER: Inhibition of human SW620 cell growth in a cell viability assay.

M14 = assay type: functional, cell-based
Description: SANGER: Inhibition of human M14 cell growth in a cell viability assay.

MEL-JUSO = assay type: functional, cell-based
Description: SANGER: Inhibition of human MEL-JUSO cell growth in a cell viability assay.

HO-1-N-1 = assay type: functional, cell-based
Description: SANGER: Inhibition of human HO-1-N-1 cell growth in a cell viability assay.

D-247MG = assay type: functional, cell-based
Description: SANGER: Inhibition of human D-247MG cell growth in a cell viability assay.

MC-IXC = assay type: functional, cell-based
Description: SANGER: Inhibition of human MC-IXC cell growth in a cell viability assay.

SNU-423 = assay type: functional, cell-based
Description: SANGER: Inhibition of human SNU-423 cell growth in a cell viability assay.

LCLC-97TM1 = assay type: functional, cell-based
Description: SANGER: Inhibition of human LCLC-97TM1 cell growth in a cell viability assay.

SW1710 = assay type: functional, cell-based
Description: SANGER: Inhibition of human SW1710 cell growth in a cell viability assay.

647-V = assay type: functional, cell-based
Description: SANGER: Inhibition of human 647-V cell growth in a cell viability assay.

SK-LU-1 = assay type: functional, cell-based
Description: SANGER: Inhibition of human SK-LU-1 cell growth in a cell viability assay.

SAOS-2 = assay type: functional, cell-based
Description: SANGER: Inhibition of human Saos-2 cell growth in a cell viability assay.

SK-MEL-24 = assay type: functional, cell-based
Description: SANGER: Inhibition of human SK-MEL-24 cell growth in a cell viability assay.

KYSE-510 = assay type: functional, cell-based
Description: SANGER: Inhibition of human KYSE-510 cell growth in a cell viability assay.

Ca9-22 = assay type: functional, cell-based
Description: SANGER: Inhibition of human Ca9-22 cell growth in a cell viability assay.

SiHa = assay type: functional, cell-based
Description: SANGER: Inhibition of human SiHa cell growth in a cell viability assay.

SNU-387 = assay type: functional, cell-based
Description: SANGER: Inhibition of human SNU-387 cell growth in a cell viability assay.

S-117 = assay type: functional, cell-based
Description: SANGER: Inhibition of human S-117 cell growth in a cell viability assay.

OVCAR-8 = assay type: functional, cell-based
Description: SANGER: Inhibition of human OVCAR-8 cell growth in a cell viability assay.

Daudi = assay type: functional, cell-based
Description: SANGER: Inhibition of human Daudi cell growth in a cell viability assay.

NCI-H719 = assay type: functional, cell-based
Description: SANGER: Inhibition of human NCI-H719 cell growth in a cell viability assay.

NCI-H2009 = assay type: functional, cell-based
Description: SANGER: Inhibition of human NCI-H2009 cell growth in a cell viability assay.

SCC-4 = assay type: functional, cell-based
Description: SANGER: Inhibition of human SCC-4 cell growth in a cell viability assay.

HCC2157 = assay type: functional, cell-based
Description: SANGER: Inhibition of human HCC2157 cell growth in a cell viability assay.

NCI-H650 = assay type: functional, cell-based
Description: SANGER: Inhibition of human NCI-H650 cell growth in a cell viability assay.

LN-405 = assay type: functional, cell-based
Description: SANGER: Inhibition of human LN-405 cell growth in a cell viability assay.

5637 = assay type: functional, cell-based
Description: SANGER: Inhibition of human 5637 cell growth in a cell viability assay.

Detroit 562 = assay type: functional, cell-based
Description: SANGER: Inhibition of human Detroit562 cell growth in a cell viability assay.

MRK-nu-1 = assay type: functional, cell-based
Description: SANGER: Inhibition of human MRK-nu-1 cell growth in a cell viability assay.

T98G = assay type: functional, cell-based
Description: SANGER: Inhibition of human T98G cell growth in a cell viability assay.

COLO-792 = assay type: functional, cell-based
Description: SANGER: Inhibition of human COLO-792 cell growth in a cell viability assay.

TYK-nu = assay type: functional, cell-based
Description: SANGER: Inhibition of human TYK-nu cell growth in a cell viability assay.

EFO-21 = assay type: functional, cell-based
Description: SANGER: Inhibition of human EFO-21 cell growth in a cell viability assay.

ABC-1 = assay type: functional, cell-based
Description: SANGER: Inhibition of human ABC-1 cell growth in a cell viability assay.

U-698-M = assay type: functional, cell-based
Description: SANGER: Inhibition of human U-698-M cell growth in a cell viability assay.

MOLT-13 = assay type: functional, cell-based
Description: SANGER: Inhibition of human MOLT-13 cell growth in a cell viability assay.

## Fc1cc(-c2cc[nH]/c(=N/c3ccc(-n4cnc(N5CCOCC5)n4)cc3)n2)cc(N2CCOCC2)c1
NCI-H630
  IC50: 544 nM
23132-87
  IC50: 623 nM
BHT-101
  IC50: 667 nM
IST-SL2
  IC50: 457 nM
SBC-5
  IC50: 398 nM
HCC38
  IC50: 1730 nM
CAPAN-1
  IC50: 394 nM
A2058
  IC50: 500 nM
BEN
  IC50: 585 nM
KYSE-180
  IC50: 272 nM
NCI-H748
  IC50: 1080 nM
GP5d
  IC50: 514 nM
P31-FUJ
  IC50: 4640 nM
MKN-28
  IC50: 301 nM
639-V
  IC50: 220 nM
MDA-MB-134-VI
  IC50: 4680 nM
BT-20
  IC50: 493 nM
RD
  IC50: 1300 nM
EB2
  IC50: 581 nM
C32
  IC50: > 5120 nM
MCF7
  IC50: 389 nM
D-336MG
  IC50: 1010 nM
NCI-H2171
  IC50: 792 nM
SW1463
  IC50: 649 nM
NCI-H1993
  IC50: 2280 nM
NCI-H2141
  IC50: > 5120 nM
SK-HEP1
  IC50: 410 nM
JEG-3
  IC50: 705 nM
YAPC
  IC50: 2290 nM
SW-620
  IC50: 355 nM
M14
  IC50: 342 nM
MEL-JUSO
  IC50: 286 nM
HO-1-N-1
  IC50: 617 nM
D-247MG
  IC50: 4670 nM
MC-IXC
  IC50: 127 nM
SNU-423
  IC50: 378 nM
LCLC-97TM1
  IC50: 163 nM
SW1710
  IC50: 232 nM
647-V
  IC50: 401 nM
SK-LU-1
  IC50: 987 nM
SAOS-2
  IC50: 1780 nM
SK-MEL-24
  IC50: > 5120 nM
KYSE-510
  IC50: 447 nM
Ca9-22
  IC50: 389 nM
SiHa
  IC50: 1110 nM
SNU-387
  IC50: 417 nM
S-117
  IC50: > 5120 nM
OVCAR-8
  IC50: 412 nM
Daudi
  IC50: 381 nM
NCI-H719
  IC50: 2240 nM
NCI-H2009
  IC50: 508 nM
SCC-4
  IC50: 1250 nM
HCC2157
  IC50: 494 nM
NCI-H650
  IC50: 141 nM
LN-405
  IC50: 991 nM
5637
  IC50: 5040 nM
Detroit 562
  IC50: 321 nM
MRK-nu-1
  IC50: 545 nM
T98G
  IC50: 567 nM
COLO-792
  IC50: > 5120 nM
TYK-nu
  IC50: 2620 nM
EFO-21
  IC50: 913 nM
ABC-1
  IC50: 889 nM
U-698-M
  IC50: 282 nM

## CCn1c(-c2nonc2N)nc2cnc(Oc3cccc(NC(=O)c4ccc(OCCN5CCOCC5)cc4)c3)cc21 [GSK-269962A]
IST-SL2
  IC50: > 2500 nM
NCI-H748
  IC50: > 2500 nM
P31-FUJ
  IC50: > 2500 nM
MDA-MB-134-VI
  IC50: > 2500 nM
EB2
  IC50: > 2500 nM
D-336MG
  IC50: 629 nM
NCI-H2171
  IC50: 959 nM
NCI-H2141
  IC50: > 2500 nM
D-247MG
  IC50: 628 nM
MOLT-13
  IC50: > 2500 nM
Daudi
  IC50: 2100 nM
NCI-H719
  IC50: > 2500 nM
HCC2157
  IC50: > 2500 nM
MRK-nu-1
  IC50: 576 nM
U-698-M
  IC50: > 2500 nM

## Cc1[nH]c(/C=C2\C(=O)Nc3ccc(S(=O)(=O)Cc4c(Cl)cccc4Cl)cc32)c(C)c1C(=O)N1CCC[C@@H]1CN1CCCC1 [PHA-665752]
IST-SL2
  IC50: > 2000 nM
NCI-H748
  IC50: > 2000 nM
P31-FUJ
  IC50: > 2000 nM
MDA-MB-134-VI
  IC50: > 2000 nM
EB2
  IC50: > 2000 nM
D-336MG
  IC50: > 2000 nM
NCI-H2171
  IC50: > 2000 nM
NCI-H2141
  IC50: > 2000 nM
D-247MG
  IC50: > 2000 nM
MOLT-13
  IC50: > 2000 nM
Daudi
  IC50: > 2000 nM
NCI-H719
  IC50: > 2000 nM
HCC2157
  IC50: > 2000 nM
MRK-nu-1
  IC50: > 2000 nM
U-698-M
  IC50: > 2000 nM
